Patent publication US7790474B1, “p53 modulators” (Schering Corporation, priority 2005, dated 2010)

Tested on: GST-p53 DNA binding domain (aa 92-aa 312)
Experiment: Scintillation Proximity Assay (displacement of 3H-labeled p53 binder)
Details: percentage of 3H-labeled ligand remaining bound, number in brackets = average of n
Protocol: [drawing 38] (^3H at C bearing the chlorophenyl groups and the piperazinyl group), a radiolabeled small molecule which binds to p53, and the GST-p53 DNA binding domain (aa 92-aa 312), a quantitative screening assay was used to determine if various molecules comprise p53 binding activity. The assay is based on Scintillation Proximity Assay (SPA) technology. The complex of GST-p53,
[drawing 39] and Glutathione-SPA beads (Amersham Biosciences) were incubated with mixing for 1 hour at room temperature in the presence of the compounds to be screened. The signal was read on a Microbeta.
The numerical values expressed refer to the percentage of labeled
[drawing 40] remaining bound to the mutant p53 protein after exposure to the indicated compound.

Compared with `CC(C)[C@H](Nc1nc(CNC(=O)N[C@H](C)c2ccccc2)nc2ccccc12)C(N)=O` [Formula 59], `COC(=O)[C@@H](Nc1nc(CNC(=O)Nc2ccccc2C(F)(F)F)nc2ccccc12)C(C)C` [Formula 54] is lower in “SPA ASSAY % Residual T @ 2 ug/mL of drug (Average of)” value (from here on “SPA ASSAY % Residual T @ 2 ug/mL”): 56.8% for the first, 48.1% for the second.

Compared with `CN(C)CCCNc1nc(CN2CCN(C(=O)Nc3ccc(Cl)c(Cl)c3)CC2)nc2ccccc12` [Formula 17], `COc1ccc(NC(=O)N2CCN(Cc3nc(NCCCN(C)C)c4ccccc4n3)CC2)cc1` [Formula 16] is higher in “SPA ASSAY % Residual T @ 2 ug/mL” value: 29.9% for the first, 38.0% for the second.

First: CN(C)CCCNc1nc(CN2CCN(Cc3cccc4ccccc34)CC2)nc2ccccc12 [Formula 14]
Second: CN(C)CCCNc1nc(CN(C)Cc2cccc3ccccc23)nc2ccccc12 [Formula 82]
The “SPA ASSAY % Residual T @ 2 ug/mL” value of the first is lower: 27.9% for the first, 52.9% for the second.

Going from `CN(Cc1ccccc1)c1nc(CN2CCN(C(c3ccc(Cl)cc3)c3ccc(Cl)cc3)CC2)nc2ccccc12` [Formula 43] to `CN(CCc1ccccn1)c1nc(CN2CCN(C(c3ccc(Cl)cc3)c3ccc(Cl)cc3)CC2)nc2ccccc12` [Formula 45], the “SPA ASSAY % Residual T @ 2 ug/mL” value falls from 80.7% to 61.6%.

Going from `CN(C)CCCNc1nc(CN(Cc2ccccc2)Cc2ccccc2)nc2ccccc12` [Formula 113] to `CN(C)CCCNc1nc(CN(C)Cc2ccc(-c3ccccc3)cc2)nc2ccccc12` [Formula 90], the “SPA ASSAY % Residual T @ 2 ug/mL” value rises from 61.7% to 68.1%.

First: CN(C)CCCNc1nc(CN(C)Cc2cccc(C#N)c2)nc2ccccc12 [Formula 69]
Second: CN(C)CCCNc1nc(CN(C)Cc2cccc(F)c2)nc2ccccc12 [Formula 67]
The “SPA ASSAY % Residual T @ 2 ug/mL” value of the first is lower: 50.9% for the first, 64.1% for the second.

Compared with `CN(C)[C@@H]1CCN(c2nc(CN3CCN(C(c4ccc(Cl)cc4)c4ccc(Cl)cc4)CC3)nc3ccccc23)C1` [Formula 50], `OC1CCN(c2nc(CN3CCN(C(c4ccc(Cl)cc4)c4ccc(Cl)cc4)CC3)nc3ccccc23)C1` (centres unmarked) [Formula 42] is higher in “SPA ASSAY % Residual T @ 2 ug/mL” value: 53.0% for the first, 70.0% for the second.

First: CN(C)CCCNc1nc(CN(C)C2C[C@@H]3CC[C@H]2C3)nc2ccccc12 (some centres unmarked) [Formula 98]
Second: CN(C)CCCNc1nc(CN(C)C2CCC2)nc2ccccc12 [Formula 95]
The “SPA ASSAY % Residual T @ 2 ug/mL” value of the first is lower: 64.4% for the first, 66.5% for the second.

Going from `CN(C)CCCNc1nc(CN2CCN(C(c3ccccc3)c3ccc(OC(F)(F)F)cc3)CC2)nc2ccccc12` (centres unmarked) [Formula 9] to `CN(C)CCCNc1nc(CN2CCN(C(c3ccc(Cl)cc3)c3ccc(Cl)cc3)CC2)nc2ccccc12` [Formula 8], the “SPA ASSAY % Residual T @ 2 ug/mL” value falls from 27.9% to 16.1%.

Compared with `CN(C)CCCNc1nc(CN(C)Cc2cccc3c2OCO3)nc2ccccc12` [Formula 81], `CN(C)CCCNc1nc(CN(C)Cc2cccc(Cl)c2Cl)nc2ccccc12` [Formula 86] is higher in “SPA ASSAY % Residual T @ 2 ug/mL” value: 46.8% for the first, 61.1% for the second.

Going from `CN(C)CCCNc1nc(CN(C)Cc2ccc(Cl)cc2)nc2ccccc12` [Formula 74] to `COc1ccc(CN(C)Cc2nc(NCCCN(C)C)c3ccccc3n2)cc1` [Formula 73], the “SPA ASSAY % Residual T @ 2 ug/mL” value falls from 55.1% to 44.4%.

First: COc1ccc(Cl)cc1NC(=O)N(C)Cc1nc(NCCCN(C)C)c2ccccc2n1 [Formula 112]
Second: Cc1cccc(C)c1CN(C)Cc1nc(NCCCN(C)C)c2ccccc2n1 [Formula 72]
The “SPA ASSAY % Residual T @ 2 ug/mL” value of the first is lower: 48.4% for the first, 69.7% for the second.

First: CC1CCC(N(C)Cc2nc(NCCCN(C)C)c3ccccc3n2)CC1 (centres unmarked) [Formula 99]
Second: CN(C)CCCNc1nc(CN(C)CC2CCCCC2)nc2ccccc12 [Formula 111]
The “SPA ASSAY % Residual T @ 2 ug/mL” value of the first is lower: 56.5% for the first, 57.0% for the second.

First: CN(C)CCCNc1nc(CN(C)Cc2ccc(Oc3ccccc3)cc2)nc2ccccc12 [Formula 91]
Second: CN(C)CCCNc1nc(CN(C)Cc2ccccc2Sc2ccc(Cl)cc2)nc2ccccc12 [Formula 94]
The “SPA ASSAY % Residual T @ 2 ug/mL” value of the first is higher: 54.0% for the first, 53.7% for the second.

First: COC(=O)C1CCN(c2nc(CN3CCN(C(c4ccc(Cl)cc4)c4ccc(Cl)cc4)CC3)nc3ccccc23)CC1 [Formula 53]
Second: OC1CCN(c2nc(CN3CCN(C(c4ccc(Cl)cc4)c4ccc(Cl)cc4)CC3)nc3ccccc23)CC1 [Formula 51]
The “SPA ASSAY % Residual T @ 2 ug/mL” value of the first is higher: 62.7% for the first, 61.6% for the second.

First: CN(C)CCCNc1nc(CN(C)Cc2ccccc2C(=O)O)nc2ccccc12 [Formula 80]
Second: CC(CCN(C)Cc1nc(NCCCN(C)C)c2ccccc2n1)c1ccccc1 (centres unmarked) [Formula 79]
The “SPA ASSAY % Residual T @ 2 ug/mL” value of the first is lower: 65.6% for the first, 67.6% for the second.

First: CNCc1nc(NCCCN(C)C)c2ccccc2n1 [Formula 36]
Second: CN(C)CCCNc1nc(CN(C)Cc2cccs2)nc2ccccc12 [Formula 65]
The “SPA ASSAY % Residual T @ 2 ug/mL” value of the first is lower: 42.6% for the first, 65.5% for the second.

Going from `CN(Cc1ccccc1)Cc1nc2ccccc2c(=O)[nH]1` [Formula 34] to `CN(C)CCCNc1nc(CN(C)C/C=C/c2ccccc2)nc2ccccc12` [Formula 71], the “SPA ASSAY % Residual T @ 2 ug/mL” value rises from 36.8% to 68.4%.

First: CN(C)CCC[C@H](Nc1nc(CN2CCN(C(c3ccc(Cl)cc3)c3ccc(Cl)cc3)CC2)nc2ccccc12)C(N)=O [Formula 118]
Second: CC(C)COC(=O)[C@H](CCCN(C)C)Nc1nc(CN2CCN(C(c3ccc(Cl)cc3)c3ccc(Cl)cc3)CC2)nc2ccccc12 [Formula 117]
The “SPA ASSAY % Residual T @ 2 ug/mL” value of the first is lower: 58.6% for the first, 72.5% for the second.

Going from `CN(C)CCCNc1nc(CN(C)Cc2ccco2)nc2ccccc12` [Formula 63] to `Cc1cc(C)c(NC(=O)N2CCN(Cc3nc(NCCCN(C)C)c4ccccc4n3)CC2)c(C)c1` [Formula 39], the “SPA ASSAY % Residual T @ 2 ug/mL” value rises from 52.7% to 53.0%.

First: Clc1ccc(C(c2ccc(Cl)cc2)N2CCN(Cc3nc(N4CCc5ccccc5C4)c4ccccc4n3)CC2)cc1 [Formula 44]
Second: Clc1ccc(C(c2ccc(Cl)cc2)N2CCN(Cc3nc(N4CCOCC4)c4ccccc4n3)CC2)cc1 [Formula 41]
The “SPA ASSAY % Residual T @ 2 ug/mL” value of the first is higher: 83.9% for the first, 63.1% for the second.

First: Clc1ccc(C(c2ccc(Cl)cc2)N2CCN(Cc3nc(N4CCN(c5ncccn5)CC4)c4ccccc4n3)CC2)cc1 [Formula 47]
Second: O=C(C1CCCO1)N1CCN(c2nc(CN3CCN(C(c4ccc(Cl)cc4)c4ccc(Cl)cc4)CC3)nc3ccccc23)CC1 (centres unmarked) [Formula 48]
The “SPA ASSAY % Residual T @ 2 ug/mL” value of the first is higher: 85.0% for the first, 66.0% for the second.

Going from `COC(=O)[C@@H](Nc1nc(CNC(=O)Nc2cc(Cl)cc(Cl)c2)nc2ccccc12)C(C)C` [Formula 56] to `CCN(CC)C(=O)C1CCCN(c2nc(CN3CCN(C(c4ccc(Cl)cc4)c4ccc(Cl)cc4)CC3)nc3ccccc23)C1` (centres unmarked) [Formula 49], the “SPA ASSAY % Residual T @ 2 ug/mL” value rises from 52.3% to 65.7%.

Compared with `O=c1[nH]c2ccccc2n1C1CCN(c2nc(CN3CCN(C(c4ccc(Cl)cc4)c4ccc(Cl)cc4)CC3)nc3ccccc23)CC1` [Formula 18], `CCC(C)(C)C1CCC(N2CCN(Cc3nc(NCCCN(C)C)c4ccccc4n3)CC2)CC1` (centres unmarked) [Formula 15] is lower in “SPA ASSAY % Residual T @ 2 ug/mL” value: 47.9% for the first, 38.1% for the second.

In the case of `CCC(C)(C)C1CCC(N2CCN(Cc3nc(NCCCN(C)C)c4ccccc4n3)CC2)C1` (centres unmarked) [Formula 38], the “SPA ASSAY % Residual T @ 2 ug/mL” value is reported as 55.7%.

With `CN(C)CCCNc1nc(CN(C)Cc2cc(Cl)ccc2Cl)nc2ccccc12` [Formula 87] the “SPA ASSAY % Residual T @ 2 ug/mL” value was 49.5 (3) %.
In the case of `CN(C)CCCNc1nc(CN(C)Cc2nccs2)nc2ccccc12` [Formula 66], the “SPA ASSAY % Residual T @ 2 ug/mL” value is reported as 37.0 (3) %.
In the case of `Cc1c(CN(C)Cc2nc(NCCCN(C)C)c3ccccc3n2)sc2ccccc12` [Formula 88], the “SPA ASSAY % Residual T @ 2 ug/mL” value is reported as 23.6 (3) %.
For `CN(C)CCCNc1nc(CN(C)Cc2cccn2S(=O)(=O)c2ccccc2)nc2ccccc12` [Formula 93], the “SPA ASSAY % Residual T @ 2 ug/mL” value was 45.1 (3) %.
In the case of `CN(C)CCCNc1nc(CN(C)C2CCN(C(=O)c3ccccc3)CC2)nc2ccccc12` [Formula 110], the “SPA ASSAY % Residual T @ 2 ug/mL” value is reported as 20.7 (2) %.
In the case of `CN(C)CCCNc1nc(CN(C)Cc2ccoc2)nc2ccccc12` [Formula 64], the “SPA ASSAY % Residual T @ 2 ug/mL” value is reported as 50.7 (3) %.
`CCC(C)CN(C)Cc1nc(NCCCN(C)C)c2ccccc2n1` (centres unmarked) [Formula 62] was tested, and the “SPA ASSAY % Residual T @ 2 ug/mL” value was 50.0 (3) %.
In the case of `CCC(C)(C)C1CCC(N(C)Cc2nc(NCCCN(C)C)c3ccccc3n2)CC1` (centres unmarked) [Formula 107], the “SPA ASSAY % Residual T @ 2 ug/mL” value is reported as 6.3 (2) %.
With `CN(C)CCCNc1nc(CN(C)Cc2ccccc2OCC(=O)O)nc2ccccc12` [Formula 89] the “SPA ASSAY % Residual T @ 2 ug/mL” value was 60.1 (3) %.
`CN(C)CCCNc1nc(CN(C)Cc2cccc(C(F)(F)F)c2)nc2ccccc12` [Formula 85] was tested, and the “SPA ASSAY % Residual T @ 2 ug/mL” value was 48.4 (3) %.
`CC(=O)N1CCC(N(C)Cc2nc(NCCCN(C)C)c3ccccc3n2)CC1` [Formula 101] was tested, and the “SPA ASSAY % Residual T @ 2 ug/mL” value was 47.7 (3) %.
For `CN(C)CCCNc1nc(CN(C)C2CCCCC2)nc2ccccc12` [Formula 96], the “SPA ASSAY % Residual T @ 2 ug/mL” value was 45.5 (3) %.
In the case of `CC(C)C1CCC(N(C)Cc2nc(NCCCN(C)C)c3ccccc3n2)CC1` (centres unmarked) [Formula 100], the “SPA ASSAY % Residual T @ 2 ug/mL” value is reported as 13.5 (3) %.
With `CN(C)CCCNc1nc(CN(C)Cc2cc3ccccc3o2)nc2ccccc12` [Formula 78] the “SPA ASSAY % Residual T @ 2 ug/mL” value was 45.9 (3) %.
For `CN(C)CCCNc1nc(CN(C)C2CCSC2)nc2ccccc12` (centres unmarked) [Formula 97], the “SPA ASSAY % Residual T @ 2 ug/mL” value was 45.0 (3) %.
`CN(C)CCCNc1nc(CN(C)C2CCC(c3ccccc3)CC2)nc2ccccc12` (centres unmarked) [Formula 108] was tested, and the “SPA ASSAY % Residual T @ 2 ug/mL” value was 21.0 (2) %.
